Laboratory results: patent publication US7989212B2, “Detection of blood plasma schizadrin B of dissipating blood stasis botanical” (Shanghai Sundise, priority 2007, dated 2011)

Experiment: UPLC/MS detection of schizadrin B in blood plasma after administration of strengthening body resistance and dissipating blood stasis botanical
Assay type: in vivo
Conditions: plasma of mammals after drenching with the botanical; FIG. 1: rat plasma 0.5 hours after administration; ethyl acetate extraction, UPLC/MS positive ion mode
Method: Detection method of blood plasma schizadrin B of strengthening body resistance and dissipating blood stasis botanical includes the following steps: • (1) Pretreatment of mammalian plasma samples • a. Mammal plasma containing drugs after being administered the strengthening body resistance and dissipating blood stasis botanical was extracted with ethyl acetate at the volume ratio of 1:4, whirling for 3 to 5 min, then centrifuging at 9600 rpm for 10 min; and drying and enriching the supernatant under the condition of 25 to 30° C.; • b. Redissolve eluent with mobile phase and then analyze it with UPLC/MS; • (2) UPLC/MS detection
UPLC condition: chromatographic column: ACQUITY UPLC BEH C18 (a type of chromatographic column), 2.1×100 mm, mobile phase A: Water-Acetonitrile-Formic acid 95:5:0.1 v/v/v, mobile phase B: Acetonitrile-Formic acid 100:0.1 v/v; MS condition: electrospray ionization (ESI) ion source, detection with positive ion mode, scanning at the range of m/z 150 to 1200.
The described step (2) detects with the positive ion mode; the desolvation gas flow is 440 L/h, the desolvation gas temperature is 300° C., the cone gas flow is 50 L/h, the ion source temperature is 100° C., the spray capillary voltage is 3800 V, the sampling cone voltage is 30V, the extracting cone voltage is 2.00 V, the lens voltage is 0.1 V, and the mass scanning at the range of m/z 150 to 1200.
1. […]

## COc1cc2c(c(OC)c1OC)-c1c(cc3c(c1OC)OCO3)CC(C)C(C)C2 (stereo not shown) [Schizadrin B]
  detection of schizadrin B in blood plasma: can be detected
